Reference: ChEMBL document CHEMBL1126299, “Synthesis and structure-activity relationships of cephalosporins with C-3' catechol-containing residues” (J Med Chem, 1992)
Values after ≈ are worked out from the molar mass of the structure shown.

Legend:
[1] = tested on: Pseudomonas aeruginosa; test: microbe, parasite or virus in culture
Description: Minimum inhibitory concentration in Pseudomonas aeruginosa,799/61 permeability mutant

[2] = species on record: Homo sapiens; test: Compound is evaluated for serum protein binding in human blood (protein binding in marmoset blood); type: functional
[3] = The compound was tested for % urinary recovery in marmosets at the dose of 3 mg/kg; type: ADME, organism-based; set-up: dose 3 mg/kg; settings: callithrix, urine, read-out: Recovery
[4] = tested on: Citrobacter freundii; test: microbe, parasite or virus in culture
Description: Minimum inhibitory concentration in Citrobacter freundii, DR 382031 constitutive depressed type 1

[5] = molecular target: Beta-lactamase TEM (Escherichia coli) (UniProt P62593); test: The dissociation constant of compound was tested for beta-Lactamase stability
Beta-lactamase TEM (Escherichia coli), sequence (P62593 whole entry): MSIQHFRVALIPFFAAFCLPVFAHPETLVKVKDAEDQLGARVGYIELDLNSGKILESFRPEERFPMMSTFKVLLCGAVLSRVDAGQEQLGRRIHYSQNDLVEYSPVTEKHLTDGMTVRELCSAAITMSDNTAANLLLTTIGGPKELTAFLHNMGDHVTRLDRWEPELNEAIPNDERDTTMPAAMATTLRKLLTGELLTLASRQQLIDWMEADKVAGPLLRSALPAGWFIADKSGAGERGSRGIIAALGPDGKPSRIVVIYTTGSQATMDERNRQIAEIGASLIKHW

[6] = tested on: Enterobacter cloacae; test: microbe, parasite or virus in culture
Description: Minimum inhibitory concentration in Enterobacter cloacae, P99+ constitutive depressed type 1 lactamase producer

[7] = tested on: Pseudomonas aeruginosa; test: microbe, parasite or virus in culture; remark: listed apart in the source
Description: Minimum inhibitory concentration in Pseudomonas aeruginosa, 18SH constitutive depressed type 1 lactamase producer

[8] = tested on: Enterobacter cloacae; test: microbe, parasite or virus in culture; remark: listed apart in the source
Description: Minimum inhibitory concentration in Enterobacter cloacae, P99- inducible type 1 lactamase producer

[9] = The half life period in marmosets; type: ADME; settings: callithrix, in vivo
[10] = tested on: Enterobacter cloacae; test: microbe, parasite or virus in culture; remark: listed apart in the source
Description: Minimum inhibitory concentration in Enterobacter cloacae, I+401029 inducible type 1 lactamase producer

[11] = tested on: Providencia stuartii; test: microbe, parasite or virus in culture
Description: Minimum inhibitory concentration in Pseudomonas stuartii, I+442019 inducible type 1 lactamase producer

[12] = The compound was evaluated for area under the curve in marmosets; type: ADME; settings: callithrix, in vivo
[13] = tested on: Staphylococcus aureus; test: microbe, parasite or virus in culture
[14] = tested on: Staphylococcus aureus; test: microbe, parasite or virus in culture; remark: listed apart in the source
[15] = tested on: Citrobacter freundii; test: microbe, parasite or virus in culture; remark: listed apart in the source
Description: Minimum inhibitory concentration in Citrobacter freundii, I+382010 inducible type 1 lactamase producer

[16] = tested on: Escherichia coli; test: microbe, parasite or virus in culture
Description: In vitro minimum inhibitory concentration against Escherichia coli (DC2 permeability mutant).

[17] = tested on: Enterobacter cloacae; test: microbe, parasite or virus in culture; remark: listed apart in the source
Description: Minimum inhibitory concentration in Enterobacter cloacae, DR 401108 constitutive depressed type 1 lactamase producer

[18] = tested on: Providencia stuartii; test: microbe, parasite or virus in culture; remark: listed apart in the source
Description: Minimum inhibitory concentration in Pseudomonas stuartii, DR 442049 constitutive depressed type 1 lactamase producer

[19] = tested on: Pseudomonas aeruginosa; test: microbe, parasite or virus in culture; remark: listed apart in the source
Description: Minimum inhibitory concentration in Pseudomonas aeruginosa,799WT parent organism

[20] = tested on: Escherichia coli; test: microbe, parasite or virus in culture; remark: listed apart in the source
Description: In vitro minimum inhibitory concentration against Escherichia coli (DC0 parent organism).

[21] = tested on: Pseudomonas aeruginosa; test: microbe, parasite or virus in culture; remark: listed apart in the source
Description: Minimum inhibitory concentration in Pseudomonas aeruginosa, 18S inducible type 1 lactamase producer

[22] = tested on: Pseudomonas aeruginosa; test: microbe, parasite or virus in culture; remark: listed apart in the source
Description: In vitro minimum inhibitory concentration against Pseudomonas aeruginosa (PU21).

[23] = tested on: Pseudomonas aeruginosa; test: The compound was tested for minimum inhibitory concentration in Pseudomonas aeruginosa,799WT parent organism; type: functional
[24] = tested on: Pseudomonas aeruginosa; test: The compound was tested for minimum inhibitory concentration in Pseudomonas aeruginosa,799/61 permeability mutant; type: functional
[25] = physchem
[26] = tested on: Staphylococcus aureus; test: The compound was tested for minimum inhibitory concentration in Staphylococcus aureus Oxford penicillin sensitive Staphylococcus aureus; type: functional
[27] = tested on: Staphylococcus aureus; test: The compound was tested for minimum inhibitory concentration in Staphylococcus aureus,147N penicillin sensitive Staphylococcus aureus; type: functional
[28] = tested on: Providencia stuartii; test: The compound was tested for minimum inhibitory concentration in Pseudomonas stuartii,I+442019 inducible type 1 lactamase producer; type: functional, pseudomonas stuartiii
[29] = tested on: Citrobacter freundii; test: The compound was tested for minimum inhibitory concentration in Citrobacter freundii, Citrobacter freundii, DR 382031; type: functional

Compound	MIC [1]	MIC [4]	MIC [6]	MIC [7]	MIC [8]	half-life [9]	MIC [10]	MIC [11]	AUC [12]	MIC [15]	MIC [16]	MIC [17]	MIC [18]	MIC [19]	MIC [20]	MIC [21]	MIC [22]	MIC [23]	MIC [24]	pKa [25]	also measured
CC(C)(O/N=C(\C(=O)N[C@@H]1C(=O)N2C(C(=O)O)=C(CNC(=O)c3ccc(O)c(O)c3)CSC12)c1csc(N)n1)C(=O)O (stereo not given in full)	0.008 µg/mL (≈ 0.0129 µM)	16 µg/mL (≈ 25.8 µM)	16 µg/mL (≈ 25.8 µM)	0.06 µg/mL (≈ 0.0967 µM)	0.125 µg/mL (≈ 0.201 µM)	1.25 h	0.125 µg/mL (≈ 0.201 µM)	0.25 µg/mL (≈ 0.403 µM)	27.2 mg/h/L	0.03 µg/mL (≈ 0.0483 µM)	0.008 µg/mL (≈ 0.0129 µM)	> 128 µg/mL	1 µg/mL (≈ 1.61 µM)	0.008 µg/mL (≈ 0.0129 µM)	0.008 µg/mL (≈ 0.0129 µM)	0.008 µg/mL (≈ 0.0129 µM)	0.015 µg/mL (≈ 0.0242 µM)	–	–	–	Activity [2]: 96.3%; dose excreted [3]: 44.8%; pKa [5]: 8.5; MIC [13]: 16 µg/mL (≈ 25.8 µM); MIC [14]: 8 µg/mL (≈ 12.9 µM)
CC(C)(O/N=C(\C(=O)N[C@@H]1C(=O)N2C(C(=O)O)=C(CNC(=O)c3cnc4cc(O)c(O)cc4n3)CSC12)c1csc(N)n1)C(=O)O (stereo not given in full)	0.008 µg/mL (≈ 0.0119 µM)	1 µg/mL (≈ 1.49 µM)	0.5 µg/mL (≈ 0.743 µM)	0.008 µg/mL (≈ 0.0119 µM)	0.03 µg/mL (≈ 0.0446 µM)	–	0.03 µg/mL (≈ 0.0446 µM)	0.25 µg/mL (≈ 0.372 µM)	–	8 µg/mL (≈ 11.9 µM)	–	8 µg/mL (≈ 11.9 µM)	8 µg/mL (≈ 11.9 µM)	–	–	0.008 µg/mL (≈ 0.0119 µM)	–	0.008 µg/mL (≈ 0.0119 µM)	–	–	–
CC(C)(O/N=C(\C(=O)N[C@@H]1C(=O)N2C(C(=O)O)=C(CNS(=O)(=O)c3ccc(O)c(O)c3)CSC12)c1csc(N)n1)C(=O)O (stereo not given in full)	–	2 µg/mL (≈ 3.05 µM)	2 µg/mL (≈ 3.05 µM)	0.125 µg/mL (≈ 0.19 µM)	0.125 µg/mL (≈ 0.19 µM)	–	0.03 µg/mL (≈ 0.0457 µM)	0.5 µg/mL (≈ 0.761 µM)	–	0.015 µg/mL (≈ 0.0228 µM)	–	2 µg/mL (≈ 3.05 µM)	8 µg/mL (≈ 12.2 µM)	0.008 µg/mL (≈ 0.0122 µM)	–	0.015 µg/mL (≈ 0.0228 µM)	–	–	0.008 µg/mL (≈ 0.0122 µM)	8	–
CC(C)(O/N=C(\C(=O)N[C@@H]1C(=O)N2C(C(=O)O)=C(CNC(=O)c3cc(O)c4cc(O)c(O)cc4n3)CSC12)c1csc(N)n1)C(=O)O (stereo not given in full)	–	–	16 µg/mL (≈ 23.3 µM)	0.125 µg/mL (≈ 0.182 µM)	0.06 µg/mL (≈ 0.0873 µM)	–	0.5 µg/mL (≈ 0.727 µM)	0.008 µg/mL (≈ 0.0116 µM)	–	–	–	4 µg/mL (≈ 5.82 µM)	16 µg/mL (≈ 23.3 µM)	–	–	0.008 µg/mL (≈ 0.0116 µM)	2 µg/mL (≈ 2.91 µM)	0.008 µg/mL (≈ 0.0116 µM)	0.06 µg/mL (≈ 0.0873 µM)	–	–
CC(C)(O/N=C(\C(=O)N[C@@H]1C(=O)N2C(C(=O)O)=C(CCOC(=O)c3cc(O)c(O)c(Br)c3)CSC12)c1csc(N)n1)C(=O)O (stereo not given in full)	0.008 µg/mL (≈ 0.0112 µM)	4 µg/mL (≈ 5.6 µM)	2 µg/mL (≈ 2.8 µM)	0.03 µg/mL (≈ 0.042 µM)	0.03 µg/mL (≈ 0.042 µM)	1.68 h	0.03 µg/mL (≈ 0.042 µM)	0.03 µg/mL (≈ 0.042 µM)	67.7 mg/h/L	0.008 µg/mL (≈ 0.0112 µM)	0.008 µg/mL (≈ 0.0112 µM)	> 128 µg/mL	2 µg/mL (≈ 2.8 µM)	0.008 µg/mL (≈ 0.0112 µM)	0.008 µg/mL (≈ 0.0112 µM)	0.008 µg/mL (≈ 0.0112 µM)	0.008 µg/mL (≈ 0.0112 µM)	–	–	6.5	MIC [26]: 8 µg/mL (≈ 11.2 µM); MIC [27]: 8 µg/mL (≈ 11.2 µM)
CCn1cc(C(=O)NCC2=C(C(=O)O)N3C(=O)[C@@H](NC(=O)/C(=N\OC(C)(C)C(=O)O)c4csc(N)n4)C3SC2)c(=O)c2c(C#N)c(O)c(O)cc21 (stereo not given in full)	–	–	0.015 µg/mL (≈ 0.0203 µM)	0.008 µg/mL (≈ 0.0108 µM)	0.015 µg/mL (≈ 0.0203 µM)	–	0.015 µg/mL (≈ 0.0203 µM)	–	–	0.008 µg/mL (≈ 0.0108 µM)	–	0.5 µg/mL (≈ 0.675 µM)	–	–	–	0.008 µg/mL (≈ 0.0108 µM)	–	0.008 µg/mL (≈ 0.0108 µM)	0.008 µg/mL (≈ 0.0108 µM)	< 5.5	MIC [28]: 0.008 µg/mL (≈ 0.0108 µM); MIC [29]: 0.03 µg/mL (≈ 0.0405 µM)
